# Read-outs that look alike come from different tables or passages of the source.
# What was measured:
# [1] = Population PK model of rifampicin (plasma data); type: in vivo, human; conditions: population estimate (RSE%)
# Method: Individual plasma and urine data of GCDCA‐S in healthy subjects were obtained from three clinical studies. Tatosian et al.[18] (study #1) consisted of two occasions: on both occasions, a microdose probe drug cocktail for multiple clinically relevant transporters was administered, with a single oral dose of 600 mg rifampicin co‐administered on the second occasion (n = 6; 3 males, 3 females). Willemin et al.[22] (study #2) was a two‐phase, cross‐over study with a 21‐day washout period between the two phases. […] Study #3 consists of unpublished data from the same study design as reported by Willemin et al. (n = 12; 12 males).[22]
# Models were evaluated using visual predictive check (VPC) plots, goodness‐of‐fit (GOF) plots, parameter uncertainty, and changes in objective function. Model visualization and simulations were conducted in MATLAB 2024a (MathWorks, Natick, MA, USA) and Graph Pad Prism 10.2.2 (GraphPad software, La Jolla, CA, USA).
# The structural model for rifampicin was based on our previous report,[33] and represents a one‐compartment model with zero‐order absorption and linear elimination.
# The models for rifampicin, probenecid, and GCDCA‐S incorporated both inter‐individual variability for a number of model parameters (assuming log‐normal distribution) and residual unexplained variability (using a combination of proportional and additive error models).
# OATP1B1 [2] = system: OATP1B1; parameters: method as in ref 18 (a number printed in a supplementary file, which may have a reference list of its own: not looked up in the article's list); conditions: HEK293, read-out: In vitro OATP1B1 IC50, cited from earlier work
# OATP1B3 [3] = molecular target: T1, OATP1B3 (Homo sapiens, UniProt Q9NPD5); parameters: method as in ref 18 (a number printed in a supplementary file, which may have a reference list of its own: not looked up in the article's list); conditions: HEK293, read-out: In vitro OATP1B3 IC50, cited from earlier work
# T1 sequence (Q9NPD5 1-702): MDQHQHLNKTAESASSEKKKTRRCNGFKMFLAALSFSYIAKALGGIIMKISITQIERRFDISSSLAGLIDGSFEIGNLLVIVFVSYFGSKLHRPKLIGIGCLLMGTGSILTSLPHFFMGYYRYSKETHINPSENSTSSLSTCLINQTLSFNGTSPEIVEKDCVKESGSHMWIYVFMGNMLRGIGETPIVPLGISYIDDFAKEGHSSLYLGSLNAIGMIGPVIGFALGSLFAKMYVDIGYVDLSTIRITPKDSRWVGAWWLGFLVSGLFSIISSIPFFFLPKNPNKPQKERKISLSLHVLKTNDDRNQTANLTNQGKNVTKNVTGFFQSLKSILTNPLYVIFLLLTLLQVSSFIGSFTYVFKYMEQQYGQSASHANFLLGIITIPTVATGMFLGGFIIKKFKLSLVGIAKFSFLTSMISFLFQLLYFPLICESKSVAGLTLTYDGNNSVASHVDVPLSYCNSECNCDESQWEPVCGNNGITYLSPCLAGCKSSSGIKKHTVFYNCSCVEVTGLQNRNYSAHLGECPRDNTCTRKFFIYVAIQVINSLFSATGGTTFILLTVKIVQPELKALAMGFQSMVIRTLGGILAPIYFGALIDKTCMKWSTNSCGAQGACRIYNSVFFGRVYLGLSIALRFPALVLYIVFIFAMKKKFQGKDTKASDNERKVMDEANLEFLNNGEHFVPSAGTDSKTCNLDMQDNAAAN
# OATP1B = conditions: substrate CP-I, 600 mg, read-out: In vivo OATP1B Ki,u, cited from earlier work
# OATP1B1 [4] = system: OATP1B1; parameters: method as in ref 22 (a number printed in a supplementary file, which may have a reference list of its own: not looked up in the article's list); conditions: substrate CP-I, 150 – 600 mg, read-out: In vivo OATP1B Ki,u; cited from earlier work
# OATP1B3 [5] = molecular target: T1, OATP1B3; experiment: In vivo OATP1B3 inhibition estimated by POP-PK modeling of GCDCA-S data; parameters: hepatic OATP1B3 and renal OAT3 transporters; from tissue; host or cells: liver (hepatocytes) of healthy human subjects, in vivo; conditions: GCDCA-S as substrate, rifampicin 600 mg, population estimate (RSE%), read-out: K i,unbound,OATP1B3
smiles,measurement,setting,value
"CO[C@H]1/C=C/O[C@@]2(C)Oc3c(C)c(O)c4c(O)c(c(/C=N/N5CCN(C)CC5)c(O)c4c3C2=O)NC(=O)/C(C)=C\C=C\[C@H](C)[C@H](O)[C@@H](C)[C@@H](O)[C@@H](C)[C@H](OC(C)=O)[C@@H]1C [RIF, rifampicin]",clearance,"[1]; both sexes, human, plasma, oral, 600 mg, read-out: CL RIF (converted)",112 mL/min
same,Tk0 RIF,[1]; duration of zero-order absorption,0.84 (41) h
same,V RIF,[1],35 (5) L
same,Tlag RIF,[1]; single oral dose 600 mg,0.56 (20) h
same,IC50,OATP1B1 [2]; substrate CP-I,610 nM
same,IC50,OATP1B1 [2]; substrate GCDCA-S,170 nM
same,IC50,OATP1B3 [3]; substrate CP-I,570 nM
same,IC50,OATP1B3 [3]; substrate GCDCA-S,280 nM
same,Ki,OATP1B; ref 8,130 nM
same,Ki,OATP1B; ref 19,20 nM
same,Ki,OATP1B; ref 21,100 nM
same,Ki,OATP1B; ref 23,38 nM
same,Ki,OATP1B; ref 24,53 nM
same,Ki,OATP1B1 [4],140 nM
same,Ki,OATP1B3 [5],9 nM
